“Also recorded” adds a separate entry of the source.
Legend:
Format in all cases: biochemical
[1] = target: T1, AGE cross-links in tail tendon collagen of diabetic rats (Rattus norvegicus, UniProt P02454+P02466); test: Tendon collagen solubility in weak acid after in vitro treatment; conditions: for Acid Solubility Test (% increase in solubility): relative to untreated collagen of diabetic rats
T1 construct: collagen was isolated from the tail tendon of diabetic and normal controls; from tissue; host or cells: tail tendon of streptozotocin-diabetic male Sprague-Dawley rats
T1 sequence (P02454 152-1207 limits assumed): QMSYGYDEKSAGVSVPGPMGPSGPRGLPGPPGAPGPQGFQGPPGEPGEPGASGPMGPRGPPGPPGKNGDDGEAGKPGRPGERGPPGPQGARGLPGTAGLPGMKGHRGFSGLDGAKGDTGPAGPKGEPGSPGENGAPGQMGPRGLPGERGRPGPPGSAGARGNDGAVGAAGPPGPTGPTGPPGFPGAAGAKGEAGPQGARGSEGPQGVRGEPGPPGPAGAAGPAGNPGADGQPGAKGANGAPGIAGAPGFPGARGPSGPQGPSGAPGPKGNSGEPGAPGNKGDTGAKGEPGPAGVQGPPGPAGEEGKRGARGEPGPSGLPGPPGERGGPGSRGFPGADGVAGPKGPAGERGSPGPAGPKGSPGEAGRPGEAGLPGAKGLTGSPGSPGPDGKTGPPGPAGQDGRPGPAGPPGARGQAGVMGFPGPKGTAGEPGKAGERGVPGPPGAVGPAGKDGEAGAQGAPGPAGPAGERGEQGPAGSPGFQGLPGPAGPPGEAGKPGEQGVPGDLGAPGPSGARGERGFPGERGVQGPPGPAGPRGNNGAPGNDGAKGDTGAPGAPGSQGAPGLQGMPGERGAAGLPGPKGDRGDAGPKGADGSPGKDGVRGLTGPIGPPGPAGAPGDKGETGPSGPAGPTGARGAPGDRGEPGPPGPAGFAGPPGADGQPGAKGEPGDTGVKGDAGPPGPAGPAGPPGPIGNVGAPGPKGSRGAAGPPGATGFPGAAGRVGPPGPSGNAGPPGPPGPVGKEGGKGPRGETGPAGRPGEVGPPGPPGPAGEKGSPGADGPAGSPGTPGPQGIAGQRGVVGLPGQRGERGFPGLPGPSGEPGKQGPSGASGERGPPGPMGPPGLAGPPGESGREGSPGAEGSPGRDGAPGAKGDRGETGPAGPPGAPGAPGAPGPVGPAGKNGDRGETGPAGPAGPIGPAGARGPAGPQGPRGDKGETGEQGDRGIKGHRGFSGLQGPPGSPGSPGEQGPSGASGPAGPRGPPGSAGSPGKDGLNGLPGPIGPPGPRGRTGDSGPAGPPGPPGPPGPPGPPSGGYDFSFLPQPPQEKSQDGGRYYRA
T1 sequence (P02466 86-1125 limits assumed): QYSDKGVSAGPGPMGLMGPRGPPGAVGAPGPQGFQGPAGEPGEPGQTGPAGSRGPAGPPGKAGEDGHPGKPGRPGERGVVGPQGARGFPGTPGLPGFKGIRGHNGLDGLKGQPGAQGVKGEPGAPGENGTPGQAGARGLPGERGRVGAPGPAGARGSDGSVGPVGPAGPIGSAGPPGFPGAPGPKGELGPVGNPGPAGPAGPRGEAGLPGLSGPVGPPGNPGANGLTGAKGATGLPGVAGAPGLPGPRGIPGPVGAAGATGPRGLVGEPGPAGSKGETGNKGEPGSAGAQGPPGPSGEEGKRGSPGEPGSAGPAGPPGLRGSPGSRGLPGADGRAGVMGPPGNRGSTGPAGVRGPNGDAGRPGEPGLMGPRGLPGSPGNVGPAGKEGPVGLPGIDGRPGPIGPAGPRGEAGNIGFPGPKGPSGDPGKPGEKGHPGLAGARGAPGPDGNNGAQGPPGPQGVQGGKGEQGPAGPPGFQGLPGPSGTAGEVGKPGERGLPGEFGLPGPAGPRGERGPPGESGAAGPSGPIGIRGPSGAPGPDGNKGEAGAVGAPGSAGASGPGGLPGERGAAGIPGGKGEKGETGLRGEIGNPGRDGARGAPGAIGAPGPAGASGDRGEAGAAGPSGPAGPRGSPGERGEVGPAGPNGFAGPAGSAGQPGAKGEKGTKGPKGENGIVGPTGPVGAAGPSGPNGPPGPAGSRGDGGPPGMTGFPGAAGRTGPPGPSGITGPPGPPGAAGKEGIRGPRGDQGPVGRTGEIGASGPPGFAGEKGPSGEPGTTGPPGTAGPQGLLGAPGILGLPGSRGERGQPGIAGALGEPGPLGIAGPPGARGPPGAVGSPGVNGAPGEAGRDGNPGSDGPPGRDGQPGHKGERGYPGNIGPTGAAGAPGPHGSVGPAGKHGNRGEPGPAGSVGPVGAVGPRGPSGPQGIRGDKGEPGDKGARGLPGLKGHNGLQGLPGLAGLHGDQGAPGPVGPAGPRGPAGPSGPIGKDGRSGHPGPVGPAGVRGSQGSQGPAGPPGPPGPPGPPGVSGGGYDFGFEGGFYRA
Experimental: For this study, diabetes was first induced in male Sprague-Dawley rats (Charles River, Wilmington, Mass.) weighing about 150-175 g by injection of streptozotocin (65 mg/kg, i.p.). […] Tail tendons were dissected free of adhering tissues, washed thoroughly in PBS containing protease inhibitors (1 mM each of EDTA, PMSF, iodoacetamide and benzamidine hydrochloride), patted dry onto a paper towel, rolled into a ball, freeze dried, and stored at −20° C. in sealed containers until used.
Representative samples of tail tendon collagen were pulled from its bulk and were cut approximately 20-25 mm in size. The samples were then placed inside 1.5 mL microfuge tubes and suspended with 1 mL of the desired concentration of the AGE-breaker compound in PBS buffer (pH 7.4) containing 0.02 g/L NaN3. Untreated control tubes include tail tendon collagen and PBS buffer only. The tubes were incubated at 37° C. for 24 hours. After incubation, the tubes were centrifuged at 10,000 rpm and the supernatants discarded. The collagen samples were rinsed with PBS, vortexed thoroughly, centrifuged briefly, and the supernatant discarded. This rinsing was repeated twice. On final rinse, the supernatant was discarded and the tubes inverted for one minute for the samples to air dry. These collagen samples were used immediately in the acid solubility and digestion studies.
For determination of the amount of acid-insoluble collagen in samples treated and untreated with the AGE-breaker compound, 5 mg aliquots of dried tail-tendon collagen from diabetic and non-diabetic rats, all in duplicates, were added to 2 mL of 0.05 M acetic acid and stirred at 4° C. for 24 hours. The mixture was homogenized in a polytron homogenizer and stirred for an additional 24 hours at 4° C. The suspension was then centrifuged at 9000×g for 60 minutes at 4° C. The collagen in the clear supernatant was defined as the acid soluble collagen, and the gel-like pellet as the acid insoluble collagen.

[2] = target: T1, AGE cross-links in tail tendon collagen of diabetic rats; test: Total pepsin digestion assay, collagen-linked fluorescence; conditions: for Pepsin Digestion Assay (% decrease in fluorescence): relative to untreated collagen of diabetic rats
Experimental: For this study, diabetes was first induced in male Sprague-Dawley rats (Charles River, Wilmington, Mass.) weighing about 150-175 g by injection of streptozotocin (65 mg/kg, i.p.). […] Thirty-two weeks later, the rats are sacrificed and collagen was isolated from the tail tendon of diabetic and normal controls as described by Kochakian et al. (1996). Tail tendons were dissected free of adhering tissues, washed thoroughly in PBS containing protease inhibitors (1 mM each of EDTA, PMSF, iodoacetamide and benzamidine hydrochloride), patted dry onto a paper towel, rolled into a ball, freeze dried, and stored at -20° C. in sealed containers until used. Representative samples of tail tendon collagen were pulled from its bulk and were cut approximately 20-25 mm in size. […] Untreated control tubes include tail tendon collagen and PBS buffer only. The tubes were incubated at 37° C. for 24 hours. After incubation, the tubes were centrifuged at 10,000 rpm and the supernatants discarded. The collagen samples were rinsed with PBS, vortexed thoroughly, centrifuged briefly, and the supernatant discarded. This rinsing was repeated twice. On final rinse, the supernatant was discarded and the tubes inverted for one minute for the samples to air dry. These collagen samples were used immediately in the acid solubility and digestion studies. […] The clear supernatant containing digested collagen was collected and used for collagen-linked fluorescence. […] Fluorescence of the samples was quantified at 365 nm excitation and 418 nm emission. All fluorescence values were corrected for fluorescence of the pepsin in phosphate buffer and expressed as arbitrary units per micromoles of hydroxyproline content of the collagen sample. The hydroxyproline content of each collagen sample was measured following acid hydrolysis, using a microassay method as described ([…] et al., 1997). […] The tubes were autoclaved in a steam sterilizer at 250° F. for 3.5 hours. The samples were taken to dryness using a Savant Speed Vac concentrator with heat, and stored at 4° C. until assayed. The dried samples were rehydrated with 200 μL deionized water, and aliquots were assayed for their hydroxyproline content in a 96-well microtiter plate as described by […] et al. (1997).

[3] = target: T2, cross-linked collagen-AGE-BSA (Rattus norvegicus, UniProt P02454+P02466); test: AGE-BSA-collagen ELISA: cleavage of glycated BSA cross-linked to collagen; conditions: for AGE-breaking activity (cleavage of cross-linked collagen-AGE-BSA), in words: 0.1-10 mM final concentration, FIGS. 1A and 1C; for Concentration dependence of AGE-BSA-collagen crosslink breaking, in words: FIGS. 1A-C; for Overall AGE-breaking property, in words: overall judgement of the patent's tests
T2 construct: purchased Biocoat (Collaborative Research, Bedford, Mass.) for the collagen-coated plates; Sigma Chemical co. for bovine serum albumin
T2 sequence (P02454 152-1207 limits assumed): as the sequence (P02454 152-1207 limits assumed) above
T2 sequence (P02466 86-1125 limits assumed): as the sequence (P02466 86-1125 limits assumed) above
Experimental: In vitro evaluation of the ability of the AGE-breaker compounds to cleave and break cross-linking of glycated BSA (AGE-BSA) (prepared as described (Rahbar et al., 1999)) to the rat-tail-tendon-collagen was by a special ELISA (Vasan et al., 1996). The rat-tail-tendon-collagen coated plates were first blocked first with 300 μL of Superblock blocking buffer (Pierce Chemicals, Rockford, Ill.) for one hour. The blocking solution was removed from the wells by washing the plates twice with PBS-0.05% Tween 20 (PBS-T) using a Dynatech ELISA-plate washer. Cross-linking of various concentrations of AGE-BSA (0, 0.01, 0.05, 0.1, 0.25, 0.50, and 1.0 μg per well) to rat-tail-collagen coated plates was performed without the testing compound, and the plates were incubated for 5 hours at 37° C. After washing the wells three times with PBS-T to remove the unattached AGE-BSA, test concentrations of the compound (50 μL/well) dissolved in PBS were added to wells in triplicate and incubation continued at 37° C. overnight. After washing with PBS-T, the amount of BSA remaining attached to the tail collagen plate was then quantified by addition of rabbit anti-BSA polyclonal antibodies (50 μL/well) for 1 hour at 37° C. The wells were then washed three times with PBS-T and developed with the chromogenic substrate ABTS (100 μL/well). Absorbance was measured at 410 nm in microplate reader (BioRad, Hercules, Calif.).
The percentage breaking activity is calculated by the following formula: 100×[(A410, PBS control)−(A410, AGE-breaker compound)]/[A410, PBS control].

[4] = target: T1, AGE cross-links in tail tendon collagen of diabetic rats; test: Papain digestibility assay, collagen-linked fluorescence; conditions: for Papain digestion Assay (% decrease in fluorescence): relative to untreated collagen of diabetic rats
Experimental: For this study, diabetes was first induced in male Sprague-Dawley rats (Charles River, Wilmington, Mass.) weighing about 150-175 g by injection of streptozotocin (65 mg/kg, i.p.). […] Thirty-two weeks later, the rats are sacrificed and collagen was isolated from the tail tendon of diabetic and normal controls as described by Kochakian et al. (1996). Tail tendons were dissected free of adhering tissues, washed thoroughly in PBS containing protease inhibitors (1 mM each of EDTA, PMSF, iodoacetamide and benzamidine hydrochloride), patted dry onto a paper towel, rolled into a ball, freeze dried, and stored at -20° C. in sealed containers until used. Representative samples of tail tendon collagen were pulled from its bulk and were cut approximately 20-25 mm in size. […] Untreated control tubes include tail tendon collagen and PBS buffer only. The tubes were incubated at 37° C. for 24 hours. After incubation, the tubes were centrifuged at 10,000 rpm and the supernatants discarded. The collagen samples were rinsed with PBS, vortexed thoroughly, centrifuged briefly, and the supernatant discarded. This rinsing was repeated twice. On final rinse, the supernatant was discarded and the tubes inverted for one minute for the samples to air dry. These collagen samples were used immediately in the acid solubility and digestion studies. […] Digests were centrifuged at 10,000 rpm for 60 minutes at 4° C., and the supernatant separated from the pellet. […] Aliquots of the supernatant digests were also subjected to acid hydrolysis followed by hydroxyproline measurements. The results were expressed as fluorescence units per micromole of hydroxyproline content of each sample. Percent decrease in fluorescence was calculated as above. […] The tubes were autoclaved in a steam sterilizer at 250° F. for 3.5 hours. The samples were taken to dryness using a Savant Speed Vac concentrator with heat, and stored at 4° C. until assayed. The dried samples were rehydrated with 200 μL deionized water, and aliquots were assayed for their hydroxyproline content in a 96-well microtiter plate as described by […] et al. (1997).

| Compound | Acid Solubility Test (% increase in solubility) ([1]; 0.1 mM) | Acid Solubility Test (% increase in solubility) ([1]; 1.0 mM) | Acid Solubility Test (% increase in solubility) ([1]; 10 mM) | Collagen solubility in weak acid, in words ([1]; collagen of diabetic rats, P<0.05 for LR23, FIG. 2B) | Pepsin Digestion Assay (% decrease in fluorescence) ([2]; 0.1 mM) | Pepsin Digestion Assay (% decrease in fluorescence) ([2]; 1.0 mM) | Pepsin Digestion Assay (% decrease in fluorescence) ([2]; 10 mM) | AGE-linked fluorescence of collagen after pepsin digestion, in words ([2]; collagen of diabetic rats, P<0.05 for LR23, FIG. 3B) | AGE-breaking activity (cleavage of cross-linked collagen-AGE-BSA), in words [3] | Concentration dependence of AGE-BSA-collagen crosslink breaking, in words [3] | Overall AGE-breaking property, in words [3] | Papain digestion Assay (% decrease in fluorescence) ([4]; 0.1 mM) | Papain digestion Assay (% decrease in fluorescence) ([4]; 1.0 mM) | Papain digestion Assay (% decrease in fluorescence) ([4]; 10 mM) | AGE-linked fluorescence of collagen after papain digestion, in words ([4]; collagen of diabetic rats, P<0.05 for LR23, FIG. 4B) | Overall AGE-breaking property, in words ([3]; listed as metformin) |
| --- | --- | --- | --- | --- | --- | --- | --- | --- | --- | --- | --- | --- | --- | --- | --- | --- |
| CC(C)(Oc1ccc(NC(=O)Nc2cc(Cl)cc(Cl)c2)cc1)C(=O)NC1(C(=O)O)CCCCC1 [LR23, 4-(3,5-dichlorophenylureido)phenoxyisobutyryl-1-amidocyclohexane-1-carboxylic acid] | 18.3% | 19.4% | 32.7% | significantly increased solubility | 7.3% | 15.5% | 18.7% | reduced the AGE-linked fluorescence | very effective AGE-breakers | more effective breakers at higher concentrations | most effective AGE-breakers | 16.7% | 25.9% | 47.2% | reduced the AGE-linked fluorescence | – |
| L-bis-[4-(4-chlorobenzamidophenoxyisobutyryl)cystine] [LR20] | 1.5% | 7.3% | 24.0% | – | 7.1% | 8.9% | 27.8% | – | very effective AGE-breakers | more effective breakers at higher concentrations | – | 18.3% | 18.4% | 24.3% | – | – |
| CN(C)C(=N)NC(=N)N [Metformin, 1,1-dimethylbiguanide, reference compound] | – | – | – | – | – | – | – | – | – | more potent at lower concentrations; also recorded: highly effective at low concentrations | moderate AGE-breaking properties | – | – | – | – | moderate AGE-breaker |
| 4-[(3,5-dichlorophenylureidophenoxyisobutyryl]-4-aminobenzoic acid [LR99] | 1.6% | 7.3% | 16.0% | – | 9.8% | 16.1% | 12.6% | – | very effective AGE-breakers | – | – | 23.5% | 35.9% | 63.6% | – | – |
